Patent US6458580B1, “Fungal sulphur source and method of using the same” (Commonwealth Scientific and Industrial Research Organisation, priority 1997, dated 2002)
Where “and” joins values, the source holds several entries; their conditions need not be identical. Identical values can stand only once.

Key:
[1] = test system: Total Bacteria; experiment: Effect of infusion on total bacteria in rumen fluid; assay type: in vivo; parameters: Total Bacteria, MPA: unit not given here; conditions: individual sheep and Aver. n = 13; for Total Bacteria, MPA: MPA infused at 192 mg Sulphur/sheep/day; for Total Bacteria, log (+): versus control period
Protocol: (§1) Feed was prepared as previously described (see example 4). Initially 22 sheep were fed 1 kg of alkali straw/day in the animal house for 4 days to select out sheep not eating the diet. 19 sheep were weighted and transferred to metabolism cages and feed the alkali straw diet ad-lib. Sheep were fed and on the following day the feed refusal weighted and if less then 100 g remained a further 100 g was fed; if 100-200g of feed remained the sheep was given the same amount of feed; if over 200 g of feed was left the sheep was given 100 g less feed. Over the following week another 6 sheep were moved out of the experiment (usually due to very low or erratic intakes). […] After 14 days infusion the collection period of 7 days commenced. At the end of the collection period samples of rumen digesta were taken for microbiology and other analyses. Rumen fluid was collected and fungal zoospores and total bacteria assessed as described in example 4 (the total bacteria were assessed on the same medium but without antibiotics). Cellulolytic bacteria were assessed by a most probable number count. Rumen fluid was serially diluted and subsamples of each dilution inoculated into 5 culture tubes containing an anaerobic medium containing rumen fluid and strips of filter paper. After incubation the presence of cellulolytic bacteria was detected by degradation of the paper and the numbers of positive tubes compared to tables to give a number of these bacteria in the original sample. Following the last sampling the infusion was stopped in the first group of sheep and on the following day the infusion treatment was begun in the other group of seven sheep. The second period (the crossover) was conducted in the same way as the first period with the same samples being taken at the same times.

[2] = test system: Neocallimastix isolates LM1 and TGB1; Piromyces isolates SM1, CS15 and TZB2; experiment: In vitro growth of selected fungal isolates at different doses of MPA; assay type: cell-based; conditions: MPA 0-1.6 mM, media with 0.5% CHO, FIGS. 2a and 2b
Protocol: Five isolates were recovered in standard media from cryopreservation and one isolate was obtained from the culture collection. Table 2 below indicates nature of isolates.
Each isolate was transferred from standard media to a modification of the low sulphur media described in Example 1. Carbohydrates (glucose+cellobiose) were added to give either 0.2% (in subculture phase ) or 0.5% (in test phase)
. Triplicate tubes of the three concentrations were inoculated with each isolate and after 3-4 days subcultured using the tubes with the best apparent growth. […] This was to be the final assessment however as some growth was obtained in the 0 controls so all tubes were subcultured again into the same type of media. After a weeks incubation growth was determined by the decrease in media pH as described in Example 1.

[3] = test system: Fungal Zoospores; experiment: Effect of infusion on fungal zoospores in rumen fluid; assay type: in vivo, sheep; conditions: for Fungal Zoospores, MPA: MPA infused at 192 mg Sulphur/sheep/day; for Fungal Zoospores, MPA / Fungal Zoospores, log (+): log10 increase after infusion of MPA: individual sheep and Aver. n = 13; for Fungal Zoospores, log (+): log10 increase after infusion of MPA: versus control period
Protocol: as §1, with “times. The number of zoospores in samples of strained ruminal fluid can be used to follow zoosporogenesis in the rumen and it provides a relative estimate of the size of the anaerobic fungal population. (1) Strain a sample of ruminal digesta through an open weave cloth, and collect the filtered fluid in a CO2-filled flask. (2) Serially dilute the fluid ten-fold in anaerobic dilution solution (ADS) to a final dilution of 10^−3. To do this, transfer 1 ml volumes using 1 ml disposable sterile syringes fitted with sterile 23 gauge (0.65 mm) needles to tubes containing 9 ml ADS, starting with fluid to form the 10^−1 dilution. Use a clean syringe at each dilution step. (3) Using a 1 ml syringe (and 23 ga. needle, as before) inoculate three roll tubes each with 0.2 ml of 10^−3 dilution. Immediately roll these tubes horizontally on ice until the agar sets. With the same syringe, inoculate three more roll tubes with 0.2 ml of 10^−2 dilution and roll them. Repeat with 10^−1 dilution and finally with undiluted fluid, if appropriate. (4) Incubate the roll tubes vertically at 39° C. for 5 d.” for “times.”

[4] = test system: Cellutolytic Bacteria; experiment: Effect of infusion on cellulolytic bacteria in rumen fluid (most probable number); assay type: in vivo; parameters: Cellutolytic Bacteria, MPA: unit not given here; conditions: individual sheep and Aver. n = 13; for Cellutolytic Bacteria, MPA: MPA infused at 192 mg Sulphur/sheep/day; for Cellutolytic Bacteria, log (+): versus control period
Protocol: as §1

## O=C(O)CCS [MPA, 3-mercaptopropanoic acid]
[1]
  Total Bacteria, MPA: 10.50 × 10^8 (2×) and 8.07 × 10^8 and 6.83 × 10^8 and 7.50 × 10^8 and 10.00 × 10^8 and 7.17 × 10^8 and 5.87 × 10^8 and 12.00 × 10^8 and 14.50 × 10^8 and 10.83 × 10^8 and 10.67 × 10^8 and 6.33 × 10^8
  Total Bacteria, log (+): 0.27 log and 0.31 log (2×) and −0.34 log (2×) and −0.17 log and 0.02 log and 0.05 log and 0.25 log (2×) and 0.29 log and 0.33 log and 0.10 log
[1]; mean
  Total Bacteria, MPA: 9.29 × 10^8
  Total Bacteria, log (+): 0.10 log
[2]
  growth response of sheep versus non-sheep isolates: no clear difference between the sheep and non-sheep isolates
[3]; 192 mg Sulphur/day/sheep, with the exception of one animal
  response in numbers of rumen fungi to infusion: strong, positive, response
[3]
  Fungal Zoospores, MPA: 2567 per ml rumen fluid and 7083 per ml rumen fluid and 3050 per ml rumen fluid and 7283 per ml rumen fluid and 1783 per ml rumen fluid and 7250 per ml rumen fluid and 6167 per ml rumen fluid and 4417 per ml rumen fluid and 9017 per ml rumen fluid and 6467 per ml rumen fluid and 11167 per ml rumen fluid and 5383 per ml rumen fluid and 4900 per ml rumen fluid
  Fungal Zoospores, log (+): log10 increase after infusion of MPA: 2.7 log10 and 2.5 log10 and 2.0 log10 and 2.3 log10 and 0.4 log10 and 0.5 log10 and 0.7 log10 and 0.8 log10 and 0.2 log10 and 0.6 log10 and 1.0 log10 (2×) and 1.1 log10
[3]; mean
  Fungal Zoospores, MPA: 5887 per ml rumen fluid
  Fungal Zoospores, log (+): log10 increase after infusion of MPA: 1.20 log10
[4]
  Cellutolytic Bacteria, MPA: 6.96 × 10^8 and 0.556 × 10^8 and 4.42 × 10^8 and 1.84 × 10^8 and 2.173 × 10^8 and 3.447 × 10^8 and 1.086 × 10^8 and 0.912 × 10^8 and 3.219 × 10^8 (3×) and 18.37 × 10^8 and 3.22 × 10^8
  Cellutolytic Bacteria, log (+): 0.58 log and −0.52 log and 0.38 log and −0.24 log (2×) and 0.07 log and 0.50 log and 0.12 log and 1.76 log and 0.76 log and 1.00 log and 0.62 log and 0.47 log
[4]; mean
  Cellutolytic Bacteria, MPA: 4.05 × 10^8
  Cellutolytic Bacteria, log (+): 0.40 log
